Test results published in patent US11673853B2, “Small molecule AMPK activators” (University of Pittsburgh—Of the Commonwealth System of …, priority 2016, dated 2023).

Legend:
mice = test: LPS pneumonia model; format: in vivo; conditions: 2 or 10 mg/kg i.p., LPS 3 mg/kg i.t., 18 h
Experimental: FIG. 8. Compound 12 (2 or 10 mg/kg) was administered to mice though an i.p. injection, and mice were immediately challenged with LPS (E. coli, 3 mg/kg, i.t.) or without (control, CON) for an additional 18 h. Mice were then euthanized and lungs were lavaged with saline, harvested, and then homogenized. Lavage protein (H), cell counts (I) and cytokine secretions (E-G) were measured. Lungs were homogenized before being assayed by immunoblotting. The data are representative of data from n=5-6 mice/group, *P<0.05 versus vehicle. Serum cytokines (A-C) and peritoneal bacteria (D) were also measured.
(§1) FIG. 11. (A-B.) C57BL6 mice were administered i.p. vehicle, 0.08, 0.4, 2 or 10 mg/kg of Compound 23. After 10 min, mice were given LPS (E. coli, 3 mg/kg) through an i.p. injection and, after 2 h, mice were euthanized and blood collected for IL-6 and TNFα measurements. Shown in panels (A-B.) are the cytokine levels as a function of drug dose. The data represent n=3 mice/group at each dose. (C-G) Compound 23 (2 or 10 mg/kg) was administered to mice though an i.p. injection, and mice were immediately challenged with LPS (E. coli, 3 mg/kg, i.t.) or without (control, CON) for an additional 18 h. Mice were then euthanized and lungs were lavaged with saline, harvested, and then homogenized. Lavage protein (C), cell counts (D) and cytokine secretions (E-G) were measured. The data are representative of data from n=5 mice/group, *P<0.05 versus vehicle.
Compound 12 was tested in two pneumonia model using Pseudomonas or LPS endotoxin.
(§2) Compound 23 was tested in a sepsis model. Compound 23 was administered to mice at various doses through an i.p. injection, and 10 min later, mice were given LPS (E. coli; 3 mg/kg i.p.). After 2 h, mice were euthanized and blood was collected and assayed for IL-6 and TNFα cytokine levels. […] Finally, Compound 23 was tested in a pneumonia model using LPS endotoxin. […] Thus Compound 23 protects the lung against LPS induced lung injury.

PBMC cells = test: LPS-induced cytokine release from PBMCs (ELISA); format: cell-based
Experimental: FIG. 4. (A) Beas2b cells were cultured in DMEM 2% media with glucose for 24 h before switching to glucose-free media. Cells were then exposed to Compound 12 in a dose dependent manner for 18 h before being collected for immunoblotting. (B) Beas2b cells were cultured in DMEM 2% media with glucose for 24 h before Compound 12 treatment in a dose dependent manner. After 18 h, cells were then collected for immunoblotting. (C) Beas2b cells were cultured in DMEM 2% media with glucose for 24 h before switching to glucose-free media. Cells were then exposed to Compound 12 for 18 h before being collected for mRNA analysis. (D) 50K PBMC cells were cultured in 96 well plates before being exposed to Compound 12 for 4 h. Cells were then treated with LPS (10 ng/ml) for additional 2 h. Media were then collected and IL-1b concentration was determined by ELISA.
FIG. 10. (A) 50K PBMC cells were cultured in 96 well plates before being exposed to Compound 23 for 18 h. Cells were then treated with LPS (10 ng/ml) for additional 4 h. Media were then collected and TNF and IL-1b concentration were determined by ELISA. (B) PBMC cells (1 mL at 1.0×10^6/ml) were treated with Compound 23 (5 μM) for 18 h. Cells were then treated with 100 ng/ml LPS for 4 h. Cytokine release was monitored by the human cytokine array (R&D systems). The results from a cytokine array dot blot were quantitated and graphed.
A SAR study was performed by constructing analogs of Compound 1. […] Compound 12 was further tested in PBMCs. Briefly, PBMCs were treated with Compound 12 at various concentrations for 4 h before exposure to LPS (10 ng/ml) for 2 h.
Compound 23 was tested in in vitro inflammatory assays. 50K PBMC cells were cultured in 96 well plates before being exposed to Compound 23 for 18 h. Cells were then treated with LPS (10 ng/ml) for additional 4 h. Media were then collected and assayed for TNF and IL-1b. […] Cytokine arrays were used to profile which cyotokine/chemokines were regulated by Compound 23.

C57BL6 mice = test: LPS-induced sepsis model; format: in vivo; conditions: i.p., LPS (E. coli) 3 mg/kg i.p. after 10 min, blood at 2 h
Experimental: FIG. 5. C57BL6 mice were administered i.p. vehicle, 0.04, 0.2, 1 or 5 mg/kg of Compound 12. After 10 min, mice were given LPS (E. coli, 3 mg/kg) through an i.p. injection and, after 2 h, mice were euthanized and blood was collected for IL1-β, IL-6 and TNFα measurements. Shown in panels (D)-(F) is % inhibition of cytokine levels as a function of drug dose. The data represent n=3 mice/group at each dose. Protein (A), cell counts (B), bacterial count (C), and presence of AMPK and pAMPK (G) were also determined.
as §1
In a sepsis model, Compound 12 was administered to mice at various doses through an i.p. injection, and, after 10 min, the mice were given LPS (E. coli; 3 mg/kg i.p.). Two hours later, the mice were euthanized, and blood was collected and assayed for IL-1β, IL-6 and TNFα cytokine levels.
as §2

[1] = compound 18 h, then LPS 10 ng/ml 4 h

Compound: OC(COc1ccc(C(F)(F)F)cc1)CN(Cc1ccccc1)Cc1ccccc1 (stereo not drawn) [Compound 23]
- lavage cell counts (mice): substantially decreased
- lavage cytokine release (mice): effectively reduces
- lavage protein concentration (mice): substantially decreased
- IL-1b in media (PBMC cells; [1]): dose dependently decreased
- TNF in media (PBMC cells; [1]): dose dependently decreased
- ID50 IL-6 (C57BL6 mice): 0.4 mg/kg
- ID50 TNF-α (C57BL6 mice): 0.4 mg/kg

Compound: OC(COc1ccc(F)cc1)CN(Cc1ccccc1)Cc1ccccc1 (stereo not drawn) [Compound 12]
- lavage cell counts (mice): significantly decreased
- lavage cytokine release (mice): significantly decreased
- lavage protein concentration (mice): significantly decreased
- pAMPK levels within the lung tissue (mice; immunoblotting): effectively increased
- LPS induced IL-1 release from PBMCs (PBMC cells; compound 4 h, then LPS 10 ng/ml 2 h): potently inhibit
- ID50 IL-1β (C57BL6 mice): 0.1 mg/kg
- ID50 IL-6 (C57BL6 mice): 0.4 mg/kg
- ID50 TNF-α (C57BL6 mice): 0.4 mg/kg
